Laboratory results as given in PMC3914206.

target: T1, panel of 442 kinases (Homo sapiens, UniProt Q8IYT8); format: binding; conditions: kinase ULK2; compound concentration 10 µM
T1 construct: purchased KINOMEscan
T1 sequence (Q8IYT8 1-1036): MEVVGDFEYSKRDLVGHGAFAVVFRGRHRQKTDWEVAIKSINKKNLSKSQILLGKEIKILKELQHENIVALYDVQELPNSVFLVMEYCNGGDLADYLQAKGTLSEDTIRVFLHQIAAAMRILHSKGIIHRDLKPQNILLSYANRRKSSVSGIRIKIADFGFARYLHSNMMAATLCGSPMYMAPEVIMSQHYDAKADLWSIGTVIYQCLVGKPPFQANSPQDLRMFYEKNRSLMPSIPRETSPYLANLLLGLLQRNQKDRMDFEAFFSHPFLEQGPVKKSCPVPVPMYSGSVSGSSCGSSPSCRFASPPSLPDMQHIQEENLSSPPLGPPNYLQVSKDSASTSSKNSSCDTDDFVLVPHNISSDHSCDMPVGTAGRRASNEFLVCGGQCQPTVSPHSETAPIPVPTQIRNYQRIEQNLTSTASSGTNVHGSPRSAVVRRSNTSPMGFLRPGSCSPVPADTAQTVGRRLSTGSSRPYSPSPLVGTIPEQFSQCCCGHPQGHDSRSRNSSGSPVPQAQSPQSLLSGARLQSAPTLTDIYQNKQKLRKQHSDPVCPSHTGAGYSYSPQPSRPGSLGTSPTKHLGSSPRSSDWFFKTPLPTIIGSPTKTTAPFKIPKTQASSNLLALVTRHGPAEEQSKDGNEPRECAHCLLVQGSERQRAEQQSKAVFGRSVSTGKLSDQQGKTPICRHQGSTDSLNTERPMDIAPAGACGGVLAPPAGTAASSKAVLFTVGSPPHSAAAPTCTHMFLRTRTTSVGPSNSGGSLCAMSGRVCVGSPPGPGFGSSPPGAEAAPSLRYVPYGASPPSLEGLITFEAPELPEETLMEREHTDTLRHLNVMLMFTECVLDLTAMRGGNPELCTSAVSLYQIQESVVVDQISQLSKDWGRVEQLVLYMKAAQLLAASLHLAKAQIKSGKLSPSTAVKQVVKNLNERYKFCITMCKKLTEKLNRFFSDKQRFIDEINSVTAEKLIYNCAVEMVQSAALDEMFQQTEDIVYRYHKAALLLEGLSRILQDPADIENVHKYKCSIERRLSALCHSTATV
Excerpt: We assessed the selectivity of members of this scaffold using the KINOMEscan methodology across a near comprehensive panel of 442 kinases [[18,27]].

| SMILES | % Ctrl, ULK2 |
| --- | --- |
| COc1cc(C(=O)N2CCC(N3CCN(C)CC3)CC2)ccc1Nc1ncc2c(n1)N(C)c1ccccc1C(=O)N2C [15 (LRRK2-IN-1)] | 67 % Ctrl |
| CCOc1cc(C(=O)N2CCC(N3CCN(C)CC3)CC2)ccc1Nc1ncc2c(n1)N(C1CCCC1)c1ccccc1C(=O)N2C [Compound 26] | 98 % Ctrl |
| COc1cc(C(=O)N2CCC(N3CCN(C)CC3)CC2)ccc1Nc1ncc2c(n1)N1CCc3cccc(c31)C(=O)N2C [Compound 24] | 96 % Ctrl |
| COc1cc(C(=O)N2CCC(N3CCN(C)CC3)CC2)ccc1Nc1ncc2c(n1)N(C1CCCC1)c1ccccc1C(=O)N2C [Compound 25, 11-cyclopentyl-2-((2-methoxy-4-(4-(4-methylpiperazin-1-yl)piperidine-1-carbonyl)phenyl)amino)-5-methyl-5H-benzo[e]pyrimido[5,4-b][1,4]diazepin-6(11H)-one] | 75 % Ctrl |
